Values of other authors, collected in patent publication US6632827B2 (Sepracor Inc., priority 1996, dated 2003).
One block for each compound: values may come before it.

Key:
[1] = co-administered ketoconazole
5HT4 receptors = target: T1, 5HT4 receptors (Mus musculus, UniProt P97288); details: cultured mouse embryo colliculi neurons; read-out: EC50 concentration, cAMP generation as endpoint for 5HT4 activity
T1 construct: Using cultured mouse embryo colliculi neurons and cAMP generation as an endpoint for designating 5HT4 activity; host or cells: cultured mouse embryo colliculi neurons
T1 sequence (P97288 whole entry): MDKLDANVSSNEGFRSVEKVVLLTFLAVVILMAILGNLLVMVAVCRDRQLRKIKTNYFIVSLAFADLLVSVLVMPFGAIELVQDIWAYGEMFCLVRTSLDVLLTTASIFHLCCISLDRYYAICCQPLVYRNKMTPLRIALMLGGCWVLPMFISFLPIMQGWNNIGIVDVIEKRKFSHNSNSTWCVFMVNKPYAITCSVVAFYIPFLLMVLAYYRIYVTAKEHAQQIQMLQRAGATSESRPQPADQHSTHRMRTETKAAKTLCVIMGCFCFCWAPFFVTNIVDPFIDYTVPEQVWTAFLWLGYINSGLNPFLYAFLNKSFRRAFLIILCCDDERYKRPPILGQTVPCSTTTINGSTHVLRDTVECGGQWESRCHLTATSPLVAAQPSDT

beta-adrenergic = details: S-enantiomer vs R-enantiomer

Increase in steady-state plasma levels [1]: 8 fold | EC50 (5HT4 receptors): 70 nM | Bioavailability of the parent compound (oral administration to humans): 40-50% | Fraction of dose metabolized (oxidative N-dealkylation or aromatic hydroxylation): More than 90%
Compound: COc1cc(N)c(Cl)cc1C(=O)N[C@H]1CCN(CCCOc2ccc(F)cc2)C[C@H]1OC (racemic) [(±) Cisapride, cis-4-amino-5-chloro-N-[1-[3-(4-fluorophenoxy)propyl]-3-methoxy-4-piperidinyl]-2-methoxybenzamide]

Share of the drug found in urine (urine of humans 72 hours after dosing of cisapride): 50-80%
Compound: COc1cc(N)c(Cl)cc1C(=O)NC1CCNCC1OC (racemic) [(±) Norcisapride, 4-amino-5-chloro-N-(3-methoxy-4-piperidinyl)-2 methoxybenzamide]

Compound: CC(C)NCC(O)COc1cccc2ccccc12 (stereo not drawn) [propranolol]
Potency of S-enantiomer relative to R-enantiomer (beta-adrenergic): 100 times
